# From ChEMBL document CHEMBL4393691, “Design, synthesis and antitumor evaluation of novel celastrol derivatives” (Eur J Med Chem, 2019)
# pIC50: −log10 of the molar value. Active and inactive are the calls of the source. No cut-off for these calls is given here.
# Columns and labels:
# HepG2 = experiment: Cytotoxicity against human HepG2 cells assessed as reduction in cell viability incubated for 48 hrs by MTT assay; assay type: functional, cell-based; settings: HepG2, 48 h
# A549 [1] = experiment: Cell cycle arrest in human A549 cells assessed as accumulation at G2 phase at 0.06 uM incubated for 24 hrs by propidium iodide staining based flow cytometry analysis (Rvb=18.01%); assay type: functional
# A549 [2] = experiment: Induction of apoptosis in human A549 cells assessed as early apoptotic cells at 0.6 uM incubated for 24 hrs by AnnexinV-FITC/propidium iodide staining-based flow cytometric analysis (reference value: 4.1%); assay type: functional
# A549 [3] = experiment: Induction of apoptosis in human A549 cells assessed as viable cells at 0.2 uM incubated for 24 hrs by AnnexinV-FITC/propidium iodide/propidium iodide staining-based flow cytometric analysis (reference value: 88.1%); assay type: functional; settings: A549, 24 h, read-out: Activity
# MCF7 [4] = experiment: cells; settings: Homo sapiens, MCF7, 48 h
# A549 [5] = experiment: Induction of apoptosis in human A549 cells assessed as nuclear fragmentation at 0.06 to 0.18 uM incubated for 48 hrs by Hoechst 33342 staining-based fluorescence microscopy; assay type: functional, cell-based
# A549 [6] = experiment: Induction of apoptosis in human A549 cells assessed as increase in Fas expression at 0.5 to 2 uM incubated for 8 hrs by western blot analysis; assay type: functional, cell-based
# A549 [7] = experiment: Induction of apoptosis in human A549 cells assessed as necrotic cells at 0.8 uM incubated for 24 hrs by AnnexinV-FITC/propidium iodide staining-based flow cytometric analysis (reference value: 3.6%); assay type: functional
# A549 [8] = experiment: Cell cycle arrest in human A549 cells assessed as accumulation at S phase at 0.06 uM incubated for 24 hrs by propidium iodide staining based flow cytometry analysis (Rvb=27.61%); assay type: functional
# A549 [9] = experiment: Induction of apoptosis in human A549 cells assessed as late apoptotic cells at 0.4 uM incubated for 24 hrs by AnnexinV-FITC/propidium iodide staining-based flow cytometric analysis (reference value: 4.2%); assay type: functional
# A549 [10] = experiment: Cell cycle arrest in human A549 cells assessed as accumulation at G0/G1 phase by propidium iodide staining based flow cytometric analysis; assay type: functional
# A549 [11] = experiment: Cell cycle arrest in human A549 cells assessed as accumulation at S phase at 0.18 uM incubated for 24 hrs by propidium iodide staining based flow cytometry analysis (Rvb=27.61%); assay type: functional
# A549 [12] = experiment: Induction of apoptosis in human A549 cells assessed as viable cells at 0.8 uM incubated for 24 hrs by AnnexinV-FITC/propidium iodide staining-based flow cytometric analysis (reference value: 88.1%); assay type: functional; settings: A549, 24 h, read-out: Activity
# A549 [13] = experiment: Cell cycle arrest in human A549 cells assessed as accumulation at G1 phase at 0.18 uM incubated for 24 hrs by propidium iodide staining based flow cytometry analysis (Rvb=55.3%); assay type: functional
# A549 [14] = experiment: Induction of apoptosis in human A549 cells assessed as early apoptotic cells at 0.2 uM incubated for 24 hrs by AnnexinV-FITC/propidium iodide/propidium iodide staining-based flow cytometric analysis (reference value: 4.1%); assay type: functional
# A549 [15] = experiment: Cell cycle arrest in human A549 cells assessed as accumulation at G2 phase at 0.18 uM incubated for 24 hrs by propidium iodide staining based flow cytometry analysis (Rvb=18.01%); assay type: functional
# A549 [16] = experiment: Cell cycle arrest in human A549 cells assessed as accumulation at G2 phase at 0.27 uM incubated for 24 hrs by propidium iodide staining based flow cytometry analysis (Rvb=18.01%); assay type: functional
# A549 [17] = experiment: Induction of apoptosis in human A549 cells assessed as increase in Fas-L expression at 0.5 to 2 uM incubated for 8 hrs by western blot analysis; assay type: functional, cell-based
# A549 [18] = experiment: Induction of apoptosis in human A549 cells assessed as early apoptotic cells at 0.8 uM incubated for 24 hrs by AnnexinV-FITC/propidium iodide staining-based flow cytometric analysis (reference value: 4.1%); assay type: functional
# A549 [19] = experiment: Induction of apoptosis in human A549 cells assessed as decrease in Cdk4 expression incubated for 8 hrs by western blot analysis; assay type: functional, cell-based
# A549 [20] = experiment: Cell cycle arrest in human A549 cells assessed as accumulation at S phase at 0.27 uM incubated for 24 hrs by propidium iodide staining based flow cytometry analysis (Rvb=27.61%); assay type: functional
# A549 [21] = experiment: Induction of apoptosis in human A549 cells assessed as necrotic cells at 0.4 uM incubated for 24 hrs by AnnexinV-FITC/propidium iodide staining-based flow cytometric analysis (reference value: 3.6%); assay type: functional
# A549 [22] = experiment: cells; settings: Homo sapiens, A549, 48 h
# A549 [23] = experiment: Induction of apoptosis in human A549 cells incubated for 48 hrs by Hoechst 33342 staining-based fluorescence microscopy; assay type: functional, cell-based
# A549 [24] = experiment: Induction of apoptosis in human A549 cells assessed as viable cells at 1.2 uM incubated for 24 hrs by AnnexinV-FITC/propidium iodide staining-based flow cytometric analysis (reference value: 88.1%); assay type: functional; settings: A549, 24 h, read-out: Activity
# A549 [25] = experiment: Induction of apoptosis in human A549 cells assessed as decrease in Bcl-2 expression incubated for 8 hrs by western blot analysis; assay type: functional, cell-based
# A549 [26] = experiment: Cell cycle arrest in human A549 cells assessed as accumulation at G1 phase at 0.27 uM incubated for 12 hrs by propidium iodide staining based flow cytometry analysis (Rvb=49.49%); assay type: functional
# A549 [27] = experiment: Induction of apoptosis in human A549 cells assessed as necrotic cells at 0.2 uM incubated for 24 hrs by AnnexinV-FITC/propidium iodide staining-based flow cytometric analysis (reference value: 3.6%); assay type: functional
# A549 [28] = experiment: Cell cycle arrest in human A549 cells assessed as accumulation at G2 phase at 0.06 uM incubated for 12 hrs by propidium iodide staining based flow cytometry analysis (Rvb=11.7%); assay type: functional
# A549 [29] = experiment: Induction of apoptosis in human A549 cells assessed as early apoptotic cells at 0.4 uM incubated for 24 hrs by AnnexinV-FITC/propidium iodide staining-based flow cytometric analysis (reference value: 4.1%); assay type: functional
# A549 [30] = experiment: Induction of apoptosis in human A549 cells assessed as late apoptotic cells at 0.6 uM incubated for 24 hrs by AnnexinV-FITC/propidium iodide staining-based flow cytometric analysis (reference value: 4.2%); assay type: functional
# A549 [31] = experiment: Induction of apoptosis in human A549 cells assessed as necrotic cells at 0.6 uM incubated for 24 hrs by AnnexinV-FITC/propidium iodide staining-based flow cytometric analysis (reference value: 3.6%); assay type: functional
# A549 [32] = experiment: Induction of apoptosis in human A549 cells assessed as late apoptotic cells at 1.2 uM incubated for 24 hrs by AnnexinV-FITC/propidium iodide staining-based flow cytometric analysis (reference value: 4.2%); assay type: functional
# MCF7 [33] = experiment: Antiproliferative activity against human MCF7 cells assessed as reduction in cell viability at 1 uM incubated for 48 hrs by MTT assay relative to control; assay type: functional; settings: MCF7, 48 h
# A549 [34] = experiment: Cell cycle arrest in human A549 cells assessed as accumulation at G1 phase at 0.27 uM incubated for 24 hrs by propidium iodide staining based flow cytometry analysis (Rvb=55.3%); assay type: functional
# A549 [35] = experiment: Induction of apoptosis in human A549 cells assessed as late apoptotic cells at 0.2 uM incubated for 24 hrs by AnnexinV-FITC/propidium iodide/propidium iodide staining-based flow cytometric analysis (reference value: 4.2%); assay type: functional
smiles,measurement,setting,value
COC(=O)/C=C\c1ccc(OC)c(OCCOC(=O)[C@]2(C)CC[C@]3(C)CC[C@]4(C)C5=CC=C6C(=CC(=O)C(O)=C6C)[C@]5(C)CC[C@@]4(C)[C@@H]3C2)c1,pIC50,HepG2,6.59
same,Activity,A549 [1],15.7%
same,Activity,A549 [2],17.3%
same,viability at 0.2 µM,A549 [3],77.7%
same,pIC50,MCF7 [4],6.77
same,Activity,A549 [5],Active
same,Activity,A549 [6],Dose-dependent effect
same,Activity,A549 [7],6.9%
same,Activity,A549 [8],32.45%
same,Activity,A549 [9],16.4%
same,Activity,A549 [10],Dose-dependent effect
same,Activity,A549 [11],29.7%
same,viability at 0.8 µM,A549 [12],33.7%
same,Activity,A549 [13],61.95%
same,Activity,A549 [14],5.3%
same,Activity,A549 [15],10.87%
same,Activity,A549 [16],9.56%
same,Activity,A549 [17],Dose-dependent effect
same,Activity,A549 [18],16.1%
same,Activity,A549 [19],Dose-dependent effect
same,Activity,A549 [20],23.55%
same,Activity,A549 [21],3.7%
same,pIC50,A549 [22],6.82
same,Activity,A549 [23],Dose-dependent effect
same,viability at 1.2 µM,A549 [24],24.6%
same,Activity,A549 [25],Active
same,Activity,A549 [26],61%
same,Activity,A549 [27],4.4%
same,Activity,A549 [28],12.14%
same,Activity,A549 [29],10%
same,Activity,A549 [30],27.6%
same,Activity,A549 [31],4.5%
same,Activity,A549 [32],52.2%
same,inhibition at 1 µM,MCF7 [33],87.7%
same,Activity,A549 [34],68.04%
same,Activity,A549 [35],12.7%
